Biological target: T1, human GCGR (Homo sapiens, UniProt P47871)
T1 construct: expressed in transfected cells; grown with Blasticidin and Hygromycin
Experiment: cAMP activity assay, cells expressing human GCGR;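 further: cAMP production read by luminescence after one hour of peptide exposure at room temperature, EC50 from logistic curve fit, native glucagon and GLP-1 as control peptides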
Format: cell-based
Conditions: Table 5, ratio of hGCGR EC50 to hGLP1R EC50

T1 sequence (P47871 26-477): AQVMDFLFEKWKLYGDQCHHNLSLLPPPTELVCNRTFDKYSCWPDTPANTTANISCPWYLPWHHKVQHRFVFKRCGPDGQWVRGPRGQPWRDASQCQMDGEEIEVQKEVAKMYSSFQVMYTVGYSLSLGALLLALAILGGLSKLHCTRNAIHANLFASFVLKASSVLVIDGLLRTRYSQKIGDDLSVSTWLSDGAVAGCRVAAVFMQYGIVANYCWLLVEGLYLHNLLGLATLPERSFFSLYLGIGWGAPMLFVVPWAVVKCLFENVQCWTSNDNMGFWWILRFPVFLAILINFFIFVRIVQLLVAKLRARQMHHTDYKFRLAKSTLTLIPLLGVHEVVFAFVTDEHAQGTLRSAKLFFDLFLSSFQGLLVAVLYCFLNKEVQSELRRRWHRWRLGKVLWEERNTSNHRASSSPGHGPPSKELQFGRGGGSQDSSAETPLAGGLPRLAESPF

| Structure (SMILES) | GCGR/GLP1R ratio |
| --- | --- |
| CC(C)C[C@H](NC(=O)[C@H](Cc1ccc(O)cc1)NC(=O)[C@H](CCCCN)NC(=O)[C@H](CO)NC(=O)[C@H](CCCCNC(=O)COCCOCCNC(=O)COCCOCCNC(=O)CC[C@H](NC(=O)CCCCCCCCCCCCCCCCC(=O)O)C(=O)O)NC(=O)[C@H](CC(=O)O)NC(=O)[C@H](CO)NC(=O)[C@@H](NC(=O)[C@H](Cc1ccccc1)NC(=O)[C@@H](NC(=O)CNC(=O)[C@H](CCC(N)=O)NC(=O)[C@@H](CO)NC(=O)[C@@H](N)Cc1c[nH]cn1)[C@@H](C)O)[C@@H](C)O)C(=O)N[C@@H](CC(=O)O)C(=O)N[C@@H](CCC(=O)O)C(=O)N[C@@H](CCCNC(=N)N)C(=O)N[C@@H](C)C(=O)N[C@@H](C)C(=O)N[C@@H](CCC(N)=O)C(=O)N[C@@H](CC(=O)O)C(=O)N[C@@H](Cc1ccccc1)C(=O)N[C@H](C(=O)N[C@@H](CCCCN=[N+]=[N-])C(=O)N[C@@H](Cc1c[nH]c2ccccc12)C(=O)N[C@@H](CC(C)C)C(=O)N[C@@H](CC(C)C)C(=O)N[C@@H](CC(=O)O)C(=O)N[C@H](C(N)=O)[C@@H](C)O)C(C)C [PEP29] | 1.0 |
| CC(C)C[C@H](NC(=O)[C@H](Cc1ccc(O)cc1)NC(=O)[C@H](CCCCN)NC(=O)[C@H](CO)NC(=O)[C@H](Cc1ccc(O)cc1)NC(=O)[C@H](CC(=O)O)NC(=O)[C@H](CO)NC(=O)[C@@H](NC(=O)[C@H](Cc1ccccc1)NC(=O)[C@@H](NC(=O)CNC(=O)[C@H](CCC(N)=O)NC(=O)C(C)(C)NC(=O)[C@@H](N)Cc1c[nH]cn1)[C@@H](C)O)[C@@H](C)O)C(=O)N[C@@H](CC(=O)O)C(=O)N[C@@H](C)C(=O)N[C@@H](CCCNC(=N)N)C(=O)N[C@@H](C)C(=O)N[C@@H](C)C(=O)N[C@@H](CCCCNC(=O)COCCOCCNC(=O)COCCOCCNC(=O)CC[C@H](NC(=O)CCCCCCCCCCCCCCCCCCC(=O)O)C(=O)O)C(=O)N[C@@H](CC(=O)O)C(=O)N[C@@H](Cc1ccccc1)C(=O)N[C@H](C(=O)N[C@@H](CCCCN=[N+]=[N-])C(=O)N[C@@H](Cc1c[nH]c2ccccc12)C(=O)N[C@@H](CC(C)C)C(=O)N[C@@H](CCS(C)(=O)=O)C(=O)N[C@@H](CC(=O)O)C(=O)N[C@H](C(N)=O)[C@@H](C)O)C(C)C [PEP31] | 3.1 |
| CC(C)C[C@H](NC(=O)[C@H](Cc1ccc(O)cc1)NC(=O)[C@H](CCCCN)NC(=O)[C@H](CO)NC(=O)[C@H](CCCCN)NC(=O)[C@H](CC(=O)O)NC(=O)[C@H](CO)NC(=O)[C@@H](NC(=O)[C@H](Cc1ccccc1)NC(=O)[C@@H](NC(=O)CNC(=O)[C@H](CCC(N)=O)NC(=O)[C@@H](CO)NC(=O)[C@@H](N)Cc1c[nH]cn1)[C@@H](C)O)[C@@H](C)O)C(=O)N[C@@H](CC(=O)O)C(=O)N[C@@H](CCC(=O)O)C(=O)N[C@@H](CCCNC(=N)N)C(=O)N[C@@H](C)C(=O)N[C@@H](C)C(=O)N[C@@H](CCC(N)=O)C(=O)N[C@@H](CC(=O)O)C(=O)N[C@@H](Cc1ccccc1)C(=O)N[C@H](C(=O)N[C@@H](CCC(N)=O)C(=O)N[C@@H](Cc1c[nH]c2ccccc12)C(=O)N[C@@H](CC(C)C)C(=O)N[C@@H](CC(C)C)C(=O)N[C@@H](CC(=O)O)C(=O)N[C@H](C(=O)N[C@@H](CCCCN=[N+]=[N-])C(N)=O)[C@@H](C)O)C(C)C [PEP73] | 0.6 |

Source: patent US20190175744A1, “INSULIN-INCRETIN CONJUGATES” (Merck Sharp & Dohme Corp., priority 2016, published 2019)
